Results published in US20180220646A1, “AMS-Free Adjuvants for Water Conditioning and Agricultural Formulations” (RHODIA OPERATIONS, priority 2017, published 2018).

Assays:
Assay in all cases: Field plot weed control study, % control
Assay type in all cases: in vivo
Details in all cases: adjuvant use rate 1.0% wt/wt with glyphosate baseline
Amaranthus sp. (LIUSS) = test system: Amaranthus sp. (LIUSS)
Experimental: (§1) The efficacy evaluation was conducted by a field plot study with selected weeds. They are Linum sp. (AMSS), Amaranthus sp. (LIUSS), Helianthus sp. (HELSS), and Zea mays (ZEAMX). The field plot size is 400 square feet (10×40 ft), with three replications arranged in a randomized complete block design. Soil description: 15.3% sand, 53.9% silt, and 30.8% clay; Organic material content: 6.2%; pH: 7.5.
(§2) Product application was made using a backpack spray device, Blackout. Operation pressure: 40 psi. Nozzle: TT 11001; Spray volute: 8.5 gallon/acre.
(§3) Environmental condition during application: Air temperature—87 degree F.; Relative humidity—39%; Wind—NE, 5 mph; Soil temperature—71 degree F.; Cloud cover—50%.
(§4) Weeds were evaluated for percent control at 14 days and 28 days following application.
(§5) Sliding rating scale used: 0 indicating no control, up to 100 indicating complete control of weed species as compared to the untreated check.

Zea mays (ZEAMX) = test system: Zea mays (ZEAMX)
Experimental: as §1, §2, §3, §4, §5

Linum sp. (AMSS) = test system: Linum sp. (AMSS)
Experimental: as §1, §2, §3, §4, §5

Helianthus sp. (HELSS) = test system: Helianthus sp. (HELSS)
Experimental: as §1, §2, §3, §4, §5

| Compound | % Control at 14 days LIUSS (Amaranthus sp. (LIUSS)) | % Control at 28 days LIUSS (Amaranthus sp. (LIUSS)) | % Control at 14 days ZEAMX (Zea mays (ZEAMX)) | % Control at 28 days ZEAMX (Zea mays (ZEAMX)) | % Control at 14 days AMSS (Linum sp. (AMSS)) | % Control at 28 days AMSS (Linum sp. (AMSS)) | % Control at 14 days HELSS (Helianthus sp. (HELSS)) | % Control at 28 days HELSS (Helianthus sp. (HELSS)) |
| --- | --- | --- | --- | --- | --- | --- | --- | --- |
| C[N+](C)(C)C.C[N+](C)(C)C.O=S(=O)([O-])[O-] [Tetramethylamine Sulfate] | 46.7% | 46.7% | 56.7% | 85% | 51.7% | 58.3% | 86.7% | 85% |
| Choline salt of Sulfuric Acid | 40% | 43.3% | 55% | 83.3% | 70% | 70% | 88.3% | 95% |
| Choline Citrate | 71.7% | 86.7% | 68.3% | 90% | 61.7% | 63.3% | 89.3% | 95% |
| Choline etidronic acid | 76% | 80% | 65% | 66.7% | 70% | 70% | 91.7% | 84% |
